Test results reported in PMC11847324, “A communication hub for phosphoregulation of kinetochore-microtubule attachment” (Current biology : CB, 2024).
No end group written: not given here. *: point of attachment. BODIPYFLEthylmaleimide = Cc1cc(C)n2c1C=C1C=CC(CCC(=O)NCCN3C(=O)CC(*)C3=O)=[N+]1[B-]2(F)F

Assays:
Ndc80c^dwarf = assay: Pulldown of GST-fusions of Mps1 segments by Ndc80c^dwarf immobilized on Ni-NTA agarose; assay type: binding, S. cerevisiae; conditions: 6-His Ndc80c^dwarf on Ni-NTA agarose, 30 min incubation, SDS-PAGE read-out; Figure 1B lane 12
Excerpt: The long, N-terminal extension (residues 1–430) of yeast Mps1 has no immediately evident homology with sequences in metazoan Mps1 shown to interact with Ndc80c. […] We examined conservation among the yeast orthologs by iterative searches with the program Jackhmmer[50]. Using the N-terminal 430 residues of S. cerevisiae Mps1 as query, we identified five segments conserved among point-centromere yeasts (Figure 1A). We carried out a set of pulldown experiments, expressing them as GST-fusions and incubating them with the “dwarf” Ndc80c construct (Ndc80c^dwarf)[51] immobilized on Ni-NTA agarose (Figure 1B). In this format, we expected avidity from GST dimerization and multivalent display of Ndc80c to enhance the assay sensitivity. Ndc80c captured only the GST fusion of a peptide containing residues 151–171 (Figure 1B, lane 12), which include the most conserved region with a consensus sequence (151)RRxRRF(I/L/F)(3–4x)RxxxLGPAxR(170)(Figure 1C). Lysine appears occasionally in place of arginine, except for the invariant R at the end of the motif. […]
Figure 1. […] The bar graph above the N-terminal domain represents conservation determined by iterative searches with Jackhmmer[50] and shown as “information content”, defined in ref[68]. […]

Ndc80c^dwarf Nuf2 N128A = assay: Fluorescence polarization direct binding to Ndc80c^dwarf bearing Nuf2 N128A; set-up: species or system S. cerevisiae; conditions: Ndc80c^dwarf Nuf2 N128A relative to wild-type Ndc80c^dwarf; Figure 3D
Protocol: (§1) Figure 3. Fluorescence polarization measurements of Ndc80c^dwarf binding peptides from the N-terminal extensions of Mps1 and Ipl1. (A) Polarization of fluorescence from 20 nM Bodipy-FL Mps1(137–171) (Mps1 residues 137–171 plus a C-terminal cysteine modified with Bodipy-FL -- see Methods) and Bodipy-FL Ipl1 (26–39;45–59) as a function of Ndc80c^dwarf concentration. (B) Competition binding experiment: unlabeled competitor peptides (see figure annotation) were added in twofold serial dilutions to Bodipy-FL Mps1(137–171) and Ndc80c^dwarf at final concentrations of 20 nM and 500 nM respectively. Loss of polarization indicates displacement of bound Bodipy-FL Mps1(137–171) by the competitor. (C) As in (B), with competitor Mps1(137–171) peptides containing mutations that reduce affinity for Ndc80c[40]. (D) Polarization of fluorescence from 20 nM Bodipy-FL Mps1(137–171) as a function of the concentration of Ndc80c^dwarf bearing mutations in Nuf2 that interfere with its Mps1 interaction in cells. […] For the Ipl1 peptide, the second copy of the motif, not used for the fluorescence polarization experiments, is shown in the bottom line.
(§2) We also determined the binding of the Mps1 peptide with two Ndc80c^dwarf constructs bearing mutations characterized in the other accompanying paper -- N128A and F8A P9A[48]. […]

[1] = tested on: Ndc80c^dwarf Nuf2 F8A P9A; assay: Fluorescence polarization direct binding to Ndc80c^dwarf bearing Nuf2 F8A P9A; set-up: species or system S. cerevisiae; conditions: Ndc80c^dwarf Nuf2 F8A P9A relative to wild-type Ndc80c^dwarf; Figure 3D
Protocol: as §1, §2

Chain of Ndc80c^dwarf Nuf2 F8A P9A (P40460 115-335 limits assumed): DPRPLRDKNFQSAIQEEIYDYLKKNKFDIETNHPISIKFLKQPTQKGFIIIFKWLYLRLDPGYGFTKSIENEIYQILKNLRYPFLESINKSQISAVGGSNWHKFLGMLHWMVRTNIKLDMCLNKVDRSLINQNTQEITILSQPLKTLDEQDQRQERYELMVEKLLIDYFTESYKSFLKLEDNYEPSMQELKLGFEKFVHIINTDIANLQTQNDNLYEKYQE
Chain of Ndc80c^dwarf Nuf2 F8A P9A (P33895 1-173 F8A/P9A limits assumed, further chain): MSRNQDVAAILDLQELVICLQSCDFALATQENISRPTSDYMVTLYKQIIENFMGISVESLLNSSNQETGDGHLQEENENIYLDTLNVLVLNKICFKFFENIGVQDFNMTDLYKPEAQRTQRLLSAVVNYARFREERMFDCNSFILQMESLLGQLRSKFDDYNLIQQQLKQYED
Chain of Ndc80c^dwarf Nuf2 N128A (P40460 115-315 limits assumed): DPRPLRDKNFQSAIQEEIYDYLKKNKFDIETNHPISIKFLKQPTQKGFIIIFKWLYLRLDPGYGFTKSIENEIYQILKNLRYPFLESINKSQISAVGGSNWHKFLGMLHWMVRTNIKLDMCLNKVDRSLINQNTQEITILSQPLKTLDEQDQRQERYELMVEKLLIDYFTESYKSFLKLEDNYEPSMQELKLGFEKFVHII
Chain of Ndc80c^dwarf Nuf2 N128A (P33895 1-158 N128A limits assumed, further chain): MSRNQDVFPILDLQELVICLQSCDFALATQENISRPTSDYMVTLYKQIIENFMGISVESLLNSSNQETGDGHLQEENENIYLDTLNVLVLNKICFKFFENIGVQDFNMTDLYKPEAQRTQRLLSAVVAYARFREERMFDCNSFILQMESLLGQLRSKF
Chain of Ndc80c^dwarf (P33895 1-150): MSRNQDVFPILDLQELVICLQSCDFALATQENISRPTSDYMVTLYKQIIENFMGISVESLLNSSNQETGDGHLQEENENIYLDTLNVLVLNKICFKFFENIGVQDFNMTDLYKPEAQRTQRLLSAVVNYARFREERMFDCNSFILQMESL
Chain of Ndc80c^dwarf (P40460 115-310, further chain): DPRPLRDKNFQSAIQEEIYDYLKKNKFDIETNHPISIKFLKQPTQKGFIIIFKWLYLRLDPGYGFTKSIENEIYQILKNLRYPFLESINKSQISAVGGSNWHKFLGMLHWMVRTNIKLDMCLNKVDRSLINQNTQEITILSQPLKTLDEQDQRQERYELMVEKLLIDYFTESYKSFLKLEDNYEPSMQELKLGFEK

Substance | capture of GST fusion by immobilized Ndc80c^dwarf (Ndc80c^dwarf) | affinity weaker than for the wild-type protein (Ndc80c^dwarf Nuf2 N128A) | affinity weaker than for the wild-type protein [1]
GST fusion of a peptide containing residues 151–171: GST-fusion of Mps1 residues 151–171 expressed from pGEX-6P1 (GSGGSGGSGGSGGSERRSKRFLISNRTTKLGPAKR; also: GST fusion, end not given here) | captured | – | –
Bodipy-FL Mps1(137–171): Mps1 residues 137–171 plus a C-terminal cysteine modified with Bodipy-FL (RQNMKEDITAKYAERRSKRFLISNRTTKLGPAKRAC(BODIPYFLEthylmaleimide)) | – | about 2 logs | about 2 logs
